Data on three compounds can be found in patent publication US5472954A, “Cyclodextrin complexation” (priority 1993, dated 1995).

In brackets after ≈: the same amount, converted by molar mass. Read-outs that look alike come from different tables or passages of the source.

A short description of series [1]: Effect of previously prepared solid HPβCD-polymer complexing agent on solubility (Example 13). The format is physicochemical. The protocol:
The resultant solutions were heated in sealed containers to 120° C. and maintained at that temperature for 30 minutes, then were lyophilized. The solids thus obtained were ground with a mortar and pestle.
The solid cyclodextrin/polymer products were reconstituted with water to afford solutions containing 9.88% (w/v) HPβCD and 0.12% (w/v) PVP, 0.12% (w/v) or CMC 0.12% (w/v) HPMC. The solubilities (S) of three drugs in these solutions and in an aqueous solution containing 10% (w/v) HPβCD without added polymer were then determined as follows:
An excess amount of each drug was added to each of the four cyclodextrin solutions and the solutions were sonicated in an ultrasonic bath for 3 hours, then allowed to equilibrate for 60 hours at room temperature (23° C.). […] However, by separate preparation of the cyclodextrin/polymer complexing agent as illustrated here, one can readily avoid heating drugs which are unstable at elevated temperature.

A short description of series [2]: physchem.
The nature of series [3]: physchem. This is another data set of the same source.
Series [4] is described as follows: Transdermal delivery of hydrocortisone in vitro, Franz diffusion cell (Example 15a). It counts as in vitro ADME, hairless mice. Particulars: 0.25% (w/v) PVP vs no PVP, at maximum, HPβCD about 12% w/v. The protocol: . Female hairless mice were sacrificed by cervical dislocation and their full-thickness skins were removed and placed in Franz diffusion cells of type FDC 400 15FF, diameter 1.5 cm (Vangard International Inc., USA), containing 12.3 ml receptor phase. The receptor phase consisted of phosphate buffer saline pH 7.4 containing 0.3% (w/v) Brij-58™ and 0.4% (v/v) formaldehyde and was stirred with a magnetic bar. The receptor chamber was kept at 37° C. by circulating water through an external jacket. […]. After equilibration for three days, 2.0 ml of the donor phase was applied to the skin surface (the stratum corneum) and the donor chamber covered with Parafilm™ (a paraffin-coated plastic film). Samples of the receptor phase were removed from the cells, at 12 hour intervals, for three days and replaced with fresh buffer solution. The samples were kept frozen until analyzed by HPLC. Each experiment was repeated at least three times. The results depicted in FIG. 4 are the mean values ± standard error of the mean (SE).

The conditions of series [5]: for flux (F) through hairless mouse skin: 37° C., mean ± standard deviation, 4 times.
Series [6] is classed as physicochemical. Particulars: HPαCD MS 0.6 complex. The protocol: (§1) The effect of polyvinylpyrrolidone (PVP) on the enthalpy (ΔH) and the entropy (ΔS) of the stability constant (Kc) of the drug-cyclodextrin complex was determined.
(§2) An excess amount of the drug was added to water containing 0, 0.1, 0.25 or 0.5% (w/v) PVP and various amounts of HPβCD or HPαCD.

Series [7] can be described thus: Dissolution of hydrocortisone from tablets, USP XXII paddle apparatus (Example 10). It counts as physicochemical. Particulars: 3 minutes, 37° C. The method, then:
After equilibration for 3 days at room temperature, the suspensions were filtered through 0.45 μm membrane filters, the tiltrates were lyophilized and the solid which formed was ground with a mortar and pestle. The amount of hydrocortisone incorporated into the HPβCD complex was determined by HPLC.
Individual disks of 200 mg hydrocortisone-HPβCD complex were compressed in a hydraulic press under vacuum and a force of 1×10^4 kg for 1.5 minutes using a 13 mm (diameter) IR potassium bromide pellet punch.
The dissolution studies were carried out using a USP XXII described paddle apparatus for dissolution rate determination. The release rate was determined at 37±1° C. and 100 rpm by adding one tablet to 900 ml of water. Samples were withdrawn at various time intervals, filtered through 0.45 membrane filters and analyzed by HPLC.

Series [8] can be described thus: ΔH, ΔS and stability constant (Kc) of drug-HPβCD MS 0.6 complexes, effect of PVP (Example 17). It counts as physicochemical. Particulars: HPβCD MS 0.6 complex. The protocol:
as §1, §2

Series [9] can be described thus: physchem. Particulars: 10% heβcd.
Series [10] is described as follows: physchem. The source holds these as a separate data set.

Take `Clc1ccc(COC(Cn2ccnc2)c2ccc(Cl)cc2Cl)cc1` (stereo not shown) [Econazole, econazole]: the solubility was determined as 5200 µg/mL in series [1] (9.88% hpbetacd + 0.12% cmc, 9.88% (w/v) HPβCD and 0.12% (w/v) CMC, read-out: S3 solubility); 6320 µg/mL in series [1] (9.88% hpbetacd + 0.12% hpmc, 9.88% (w/v) HPβCD and 0.12% (w/v) HPMC, read-out: S4 solubility); 5570 µg/mL in [1] (9.88% hpbetacd + 0.12% pvp, 9.88% (w/v) HPβCD and 0.12% (w/v) PVP, read-out: S2 solubility); 4860 µg/mL (≈ 12.7 mM) in series [1] (10% hpbetacd, 10% (w/v) HPβCD, read-out: S1 solubility); 7410 µg/mL in [2] (0.25% cmc + 10% hpbetacd); 600 µg/mL (≈ 1.57 mM) in [2] (aqueous 0.25% cmc). Also, the solubility in [2] (aqueous 10% hpbetacd) came to 4860 µg/mL (≈ 12.7 mM); in series [2] (water), 570 µg/mL (≈ 1.49 mM). Further, the solubility at 72 h in [3] (0.25% pvp, 10% hpβcd) worked out at 5650 µg/mL (≈ 14.8 mM); in series [3] (10% hpβcd ms 0.7), 5220 µg/mL (≈ 13.7 mM); in [3] (aqueous 0.25% pvp) it was 640 µg/mL (≈ 1.68 mM); in series [3] (water) it was 570 µg/mL (≈ 1.49 mM).

With `C[C@]12CCC(=O)C=C1CC[C@@H]1[C@@H]2[C@@H](O)C[C@@]2(C)[C@H]1CC[C@]2(O)C(=O)CO` [Hydrocortisone, hydrocortisone], in series [4], the “flux increase with PVP” value is listed as “about 40%”. In addition, the “flux (F) through hairless mouse skin” value in series [5] (6% (w/v) HPβCD MS 0.6 and 0.25% (w/v) PVP) is reported as 0.158 ± 0.035 μm/cm^2 /h; in series [5] (aqueous 8% (w/v) HPβCD MS 0.6), 0.075 ± 0.023 μm/cm^2 /h. For the same compound, in series [5] (PVP-containing sample vs without PVP), the transdermal delivery result is recorded as “over two times faster”. Also, the ΔH was -32.1 kJ/mol in series [6] (PVP 0.00% w/v); -39.3 kJ/mol in series [6] (PVP 0.10% w/v); -48.4 kJ/mol in series [6] (PVP 0.25% w/v); -35.7 kJ/mol in series [6] (PVP 0.50% w/v); -20.4 kJ/mol in [8] (PVP 0.00% w/v); -41.0 kJ/mol in series [8] (PVP 0.10% w/v). Further, the ΔH in [8] (PVP 0.25% w/v) is -36.5 kJ/mol; in series [8] (PVP 0.50% w/v), -38.8 kJ/mol. Besides, the ΔS in [6] (PVP 0.00% w/v) is listed as -70.2 J mol^-1 K^-1; in series [6] (PVP 0.10% w/v), -94.5 J mol^-1 K^-1; in series [6] (PVP 0.25% w/v), -124.2 J mol^-1 K^-1; in series [6] (PVP 0.50% w/v), -81.9 J mol^-1 K^-1; in [8] (PVP 0.00% w/v) it was -6.2 J mol^-1 K^-1; in series [8] (PVP 0.10% w/v), -68.6 J mol^-1 K^-1. Further, the ΔS was -56.4 J mol^-1 K^-1 in series [8] (PVP 0.25% w/v) and -64.9 J mol^-1 K^-1 in series [8] (PVP 0.50% w/v). Further, the hydrocortisone dissolved in series [7] (HPβCD complex formed without CMC, average of four) worked out at 68.3%; in [7] (HPβCD complex with 0.1% (w/v) CMC) it was 74.2%; in series [7] (HPβCD complex with 0.25% (w/v) CMC), 81.0%.

In the case of `Clc1ccc(COC(Cn2ccnc2)c2ccc(Cl)cc2Cl)c(Cl)c1` (stereo not shown) [Miconazole, miconazole], the solubility in series [2] (0.25% cmc + 10% hpbetacd) was found to be 2500 µg/mL; in [2] (aqueous 0.25% cmc) it was 60 µg/mL (≈ 0.144 mM); in [2] (aqueous 10% hpbetacd) it was 1980 µg/mL (≈ 4.76 mM); in series [2] (water), 40 µg/mL (≈ 0.0961 mM); in [10] (0.25% cmc in water), 60 µg/mL (≈ 0.144 mM); in [10] (0.25% cmc, 10% hpbcd), 2500 µg/mL (≈ 6.01 mM). Further, the solubility in series [10] (10% ethanol in water, organic solvent or mixture) was 310 µg/mL (≈ 0.745 mM); in [10] (10% ethanol, 10% hpbcd, organic solvent or mixture), 2220 µg/mL (≈ 5.33 mM); in [10] (10% hpbcd in water), 1980 µg/mL (≈ 4.76 mM); in series [10] (ethanol, cmc, hpbcd, organic solvent or mixture), 12600 µg/mL (≈ 30.2 mM); in series [10] (water), 40 µg/mL (≈ 0.0961 mM). Moreover, the solubility at 72 h was 3310 µg/mL (≈ 7.95 mM) in series [9] (0.25% cmc); 2510 µg/mL (≈ 6.03 mM) in series [9]; 3400 µg/mL (≈ 8.17 mM) in series [3] (0.25% pvp, 10% hpβcd); 2360 µg/mL (≈ 5.67 mM) in series [3] (10% hpβcd ms 0.7); 200 µg/mL (≈ 0.481 mM) in [3] (aqueous 0.25% pvp); 40 µg/mL (≈ 0.0961 mM) in series [3] (water).
